Test results published in US10968215B2 (SHANGHAI HAIHE PHARMACEUTICAL CO., LTD., priority 2016, dated 2021).

Target: PRC2 complex (EZH2 Y641F/EED/SUZ12/RbAp48/AEBP2) (Homo sapiens (Human), UniProt Q15910, Y641F)
Assay: Activity of a compound to PRC2 complex (EZH2 Y641F), HTRF
Details: not given

PRC2 complex (EZH2 Y641F/EED/SUZ12/RbAp48/AEBP2), sequence (Q15910 whole entry Y641F): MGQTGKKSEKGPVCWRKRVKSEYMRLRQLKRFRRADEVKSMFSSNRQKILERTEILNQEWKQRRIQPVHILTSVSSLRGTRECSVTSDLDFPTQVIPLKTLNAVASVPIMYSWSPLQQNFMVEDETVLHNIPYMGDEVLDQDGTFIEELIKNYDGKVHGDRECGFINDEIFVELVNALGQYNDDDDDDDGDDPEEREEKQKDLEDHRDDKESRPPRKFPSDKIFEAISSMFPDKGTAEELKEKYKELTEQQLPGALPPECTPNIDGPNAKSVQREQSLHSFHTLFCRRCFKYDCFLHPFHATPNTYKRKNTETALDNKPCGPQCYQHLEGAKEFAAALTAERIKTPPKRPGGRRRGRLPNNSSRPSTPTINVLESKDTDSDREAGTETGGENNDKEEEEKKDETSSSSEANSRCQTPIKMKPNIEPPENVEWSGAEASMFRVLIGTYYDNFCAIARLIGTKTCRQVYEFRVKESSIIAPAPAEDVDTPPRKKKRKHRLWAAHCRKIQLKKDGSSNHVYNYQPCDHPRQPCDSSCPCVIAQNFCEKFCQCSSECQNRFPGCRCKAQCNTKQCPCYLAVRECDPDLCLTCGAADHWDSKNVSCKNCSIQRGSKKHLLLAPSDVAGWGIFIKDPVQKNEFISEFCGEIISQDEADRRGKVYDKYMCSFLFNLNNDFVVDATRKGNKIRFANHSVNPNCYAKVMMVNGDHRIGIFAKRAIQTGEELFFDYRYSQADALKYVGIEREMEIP
PRC2 complex (EZH2 Y641F/EED/SUZ12/RbAp48/AEBP2), sequence (O75530 whole entry partner): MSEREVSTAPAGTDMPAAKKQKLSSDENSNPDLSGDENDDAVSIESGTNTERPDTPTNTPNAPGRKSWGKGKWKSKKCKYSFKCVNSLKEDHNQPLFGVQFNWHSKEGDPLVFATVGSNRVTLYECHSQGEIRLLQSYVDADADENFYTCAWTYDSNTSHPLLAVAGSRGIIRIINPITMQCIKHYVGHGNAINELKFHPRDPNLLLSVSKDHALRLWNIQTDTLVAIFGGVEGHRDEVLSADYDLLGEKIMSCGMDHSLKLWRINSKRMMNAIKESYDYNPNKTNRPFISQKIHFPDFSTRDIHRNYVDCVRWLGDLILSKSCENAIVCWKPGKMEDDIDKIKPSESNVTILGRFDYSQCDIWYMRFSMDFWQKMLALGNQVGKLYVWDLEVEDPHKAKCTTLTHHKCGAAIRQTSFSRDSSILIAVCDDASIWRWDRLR
PRC2 complex (EZH2 Y641F/EED/SUZ12/RbAp48/AEBP2), sequence (Q15022 whole entry partner): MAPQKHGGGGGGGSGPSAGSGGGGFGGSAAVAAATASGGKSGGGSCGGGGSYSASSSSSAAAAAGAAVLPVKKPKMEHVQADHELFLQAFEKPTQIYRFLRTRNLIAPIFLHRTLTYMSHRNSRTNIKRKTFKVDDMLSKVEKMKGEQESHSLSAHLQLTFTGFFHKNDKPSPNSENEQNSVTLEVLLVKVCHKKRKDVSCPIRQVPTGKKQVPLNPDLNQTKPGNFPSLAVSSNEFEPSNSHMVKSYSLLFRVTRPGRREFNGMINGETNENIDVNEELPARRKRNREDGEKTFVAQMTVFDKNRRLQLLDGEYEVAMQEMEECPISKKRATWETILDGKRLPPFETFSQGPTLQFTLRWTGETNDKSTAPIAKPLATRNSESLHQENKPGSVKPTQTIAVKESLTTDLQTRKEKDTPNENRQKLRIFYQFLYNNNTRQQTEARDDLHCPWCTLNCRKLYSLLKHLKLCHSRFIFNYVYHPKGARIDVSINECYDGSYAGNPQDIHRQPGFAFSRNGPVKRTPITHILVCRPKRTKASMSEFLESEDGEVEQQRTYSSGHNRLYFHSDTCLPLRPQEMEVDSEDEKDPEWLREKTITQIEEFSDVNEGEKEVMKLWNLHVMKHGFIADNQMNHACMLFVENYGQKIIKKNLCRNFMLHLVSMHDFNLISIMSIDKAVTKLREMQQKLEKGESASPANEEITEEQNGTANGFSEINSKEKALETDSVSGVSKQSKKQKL
PRC2 complex (EZH2 Y641F/EED/SUZ12/RbAp48/AEBP2), sequence (Q09028 whole entry partner): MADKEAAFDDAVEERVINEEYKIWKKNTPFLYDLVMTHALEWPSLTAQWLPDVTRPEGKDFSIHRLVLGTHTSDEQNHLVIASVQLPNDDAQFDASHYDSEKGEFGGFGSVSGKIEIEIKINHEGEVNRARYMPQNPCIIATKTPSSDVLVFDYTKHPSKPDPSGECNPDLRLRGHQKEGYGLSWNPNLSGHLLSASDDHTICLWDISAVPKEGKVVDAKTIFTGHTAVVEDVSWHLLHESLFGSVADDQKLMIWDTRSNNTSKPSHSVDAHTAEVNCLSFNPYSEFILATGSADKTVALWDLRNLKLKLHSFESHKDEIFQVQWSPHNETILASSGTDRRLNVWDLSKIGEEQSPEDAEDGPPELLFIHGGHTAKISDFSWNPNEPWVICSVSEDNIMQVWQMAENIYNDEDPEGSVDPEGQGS
PRC2 complex (EZH2 Y641F/EED/SUZ12/RbAp48/AEBP2), sequence (Q6ZN18 whole entry partner): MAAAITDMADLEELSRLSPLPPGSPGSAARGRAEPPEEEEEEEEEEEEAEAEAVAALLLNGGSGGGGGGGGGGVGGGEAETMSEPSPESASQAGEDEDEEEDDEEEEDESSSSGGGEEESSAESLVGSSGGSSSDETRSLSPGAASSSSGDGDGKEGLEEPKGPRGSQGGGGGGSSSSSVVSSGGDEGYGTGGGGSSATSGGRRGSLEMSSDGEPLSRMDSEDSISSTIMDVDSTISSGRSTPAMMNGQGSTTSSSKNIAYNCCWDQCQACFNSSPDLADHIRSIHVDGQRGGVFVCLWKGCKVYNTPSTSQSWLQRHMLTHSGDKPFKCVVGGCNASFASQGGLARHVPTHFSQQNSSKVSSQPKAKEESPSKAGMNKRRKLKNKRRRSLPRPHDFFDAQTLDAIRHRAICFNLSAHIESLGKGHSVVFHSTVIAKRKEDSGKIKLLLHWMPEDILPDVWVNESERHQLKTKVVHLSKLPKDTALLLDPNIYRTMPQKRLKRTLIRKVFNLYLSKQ

Cc1cc(C)c(CNC(=O)c2cc3cc(-c4ccnn4C)cn3c(C(C)N3CCC(N(C)C)CC3)c2C)c(=O)[nH]1 (centres unmarked) [Example 106, N-((4,6-dimethyl-2-oxo-1,2-dihydropyridin-3-yl)methyl)-5-(1-(4-(dimethylamino)piperidine-1-yl)ethyl)-6-methyl-2-(1-methyl-1H-pyrazol-5-yl)indolizine-7-carboxamide] and Cc1cc(C)c(CNC(=O)c2cc3c(-c4ccccc4)ccn3c(C(C)N3CCC(N(C)C)CC3)c2C)c(=O)[nH]1 (centres unmarked) [Example 127, N-((4,6-dimethyl-2-oxo-1,2-dihydropyridin-3-yl)methyl)-6-methyl-5-(4-dimethylaminopiperidinylethyl)-1-phenylindolizine-7-carboxamide] cannot be ordered by IC50: under 0.1 µM for the first, under 0.1 µM for the second.

First: COc1cc(C)[nH]c(=O)c1CNC(=O)c1cc2cc(-c3nccn3C)cn2c(C(C)N2CCN(CC(F)(F)F)CC2)c1C (centres unmarked) [Example 109, N-((4-methoxy-6-methyl-2-oxo-1,2-dihydropyridin-3-yl)methyl)-6-methyl-2-(1-methyl-1H-imidazol-2-yl)-5-(1-(4-(2,2,2-trifluoroethyl)piperazin-1-yl)ethyl)indolizine-7-carboxamide]
Second: COc1cc(C)[nH]c(=O)c1CNC(=O)c1cc2cc(-c3cncn3C)cn2c(C(C)N2CCN(CC(F)(F)F)CC2)c1C (centres unmarked) [Example 137, N-((4-Methoxy-6-methyl-2-oxo-1,2-dihydropyridin-3-yl)methyl)-6-methyl-2-(1-methyl-1H-imidazol-5-yl)-5-(1-(4-(2,2,2-trifluoroethyl)piperazin-1-yl)ethyl)indolizine-7-carboxamide]
The IC50 of the first is higher: 0.1 to 1 µM for the first, under 0.1 µM for the second.

Cc1cc(C)c(CNC(=O)c2cc3cc(-c4cc5c(s4)CCNC5)cn3c(C(C)N3CCOCC3)c2C)c(=O)[nH]1 (centres unmarked) [Example 115, N-((4,6-dimethyl-2-oxo-1,2-dihydropyridin-3-yl)methyl)-6-methyl-5-(1-morpholinoethyl)-2-(4,5,6,7-tetrahydrothieno[3,2-c]pyridin-2-yl)indolizine-7-carboxamide] and Cc1cc(C)c(CNC(=O)c2cc3c(-c4cccc(N5CCOCC5)c4)ccn3c(C(C)N3CCOCC3)c2C)c(=O)[nH]1 (centres unmarked) [Example 117, N-((4,6-dimethyl-2-oxo-1,2-dihydropyridin-3-yl)methyl)-6-methyl-5-(1-morpholinylethyl)-1-(3-morpholinylphenyl)indolizine-7-carboxamide] cannot be ordered by IC50: under 0.1 µM for the first, under 0.1 µM for the second.

Compared with COc1ccc(-c2ccn3c(C(C)N4CCOCC4)c(C)c(C(=O)NCc4c(C)cc(C)[nH]c4=O)cc23)cc1 (centres unmarked) [Example 121, N-((4,6-dimethyl-2-oxo-1,2-dihydropyridin-3-yl)methyl)-6-methyl-5-(1-morpholinylethyl)-1-(4-methoxyphenyl)indolizine-7-carboxamide], COc1cc(C)[nH]c(=O)c1CNC(=O)c1cc2c(-c3ccnn3C)ccn2c(C(C)N2CCOCC2)c1C (centres unmarked) [Example 132, N-((4-methoxy-6-methyl-2-oxo-1,2-dihydropyridin-3-yl)methyl)-6-methyl-1-(1-methyl-1H-pyrazol-5-yl)-5-(1-morpholinylethyl)indolizine-7-carboxamide] is lower in IC50: 0.1 to 1 µM for the first, under 0.1 µM for the second. The second is the more potent here.

Same assay, conditions: read-out: IC50 (EZH2_Y641F); EZH2 Y641F PRC2 complex, HTRF; class symbols

Compared with Cc1cc(C)c(CNC(=O)c2cc3cc(Br)cn3c(C(C)N3CCN(CCC(F)(F)F)CC3)c2C)c(=O)[nH]1 (centres unmarked) [Example 104], Cc1cc(C)c(CNC(=O)c2cc3cc(-c4cncn4C)cn3c(C(C)N3CCN(CC(F)(F)F)CC3)c2C)c(=O)[nH]1 (centres unmarked) [Example 136, N-((4,6-dimethyl-2-oxo-1,2-dihydropyridin-3-yl)methyl)-6-methyl-2-(1-methyl-1H-imidazol-5-yl)-5-(1-(4-(2,2,2-trifluoroethyl)piperazin-1-yl)ethyl)indolizine-7-carboxamide] is lower in IC50: 0.1 to 1 µM for the first, under 0.1 µM for the second. The second is the more potent here.

First: Cc1cc(C)c(CNC(=O)c2cc3cc(Br)cn3c(C(C)N3CCN(CCC(F)(F)F)CC3)c2C)c(=O)[nH]1 (centres unmarked) [Example 105, 2-bromo-N-((4,6-dimethyl-2-oxo-1,2-dihydropyridin-3-yl)methyl)-6-methyl-5-(1-(4-(3,3,3-trifluoropropyl)piperazin-1-yl)ethyl)indolizine-7-carboxamide]
Second: Cc1cc(C)c(CNC(=O)c2cc3cc(Br)cn3c(C(C)N3CCC(F)(F)CC3)c2C)c(=O)[nH]1 (centres unmarked) [Example 122]
The IC50 of the first is higher: 1 to 10 µM for the first, 0.1 to 1 µM for the second. The second is the more potent here.

COc1cc(C)[nH]c(=O)c1CNC(=O)c1cc2cc(-c3nccn3C)cn2c(C(C)N2CCC(N(C)C)CC2)c1C (centres unmarked) [Example 107] and COc1cc(C)[nH]c(=O)c1CNC(=O)c1cc2cc(-c3cncn3C)cn2c(C(C)N2CCC(N(C)C)CC2)c1C (centres unmarked) [Example 135, 5-(1-(4-(dimethylamino)piperidin-1-yl)ethyl)-N-((4-methoxy-6-methyl-2-oxo-1,2-dihydropyridin-3-yl)methyl)-6-methyl-2-(1-methyl-1H-imidazol-5-yl)indolizine-7-carboxamide] cannot be ordered by IC50: under 0.1 µM for the first, under 0.1 µM for the second.

COc1cc(C)[nH]c(=O)c1CNC(=O)c1cc2cc(-c3nccn3C)cn2c(C(C)N2CCC(N(C)C)CC2)c1C (centres unmarked) [Example 108] and COc1cc(C)[nH]c(=O)c1CNC(=O)c1cc2cc(Cl)cn2c(C(C)N2CCC(N(C)C)CC2)c1C (centres unmarked) [Example 130, 2-chloro-5-(1-(4-(dimethylamino)piperidin-1-yl)ethyl)-N-((4-methoxy-6-methyl-2-oxo-1,2-di hydropyridin-3-yl)methyl)-6-methylindolizine-7-carboxamide] cannot be ordered by IC50: under 0.1 µM for the first, under 0.1 µM for the second.

First: Cc1cc(C)c(CNC(=O)c2cc3cc(-c4ccn[nH]4)cn3c(C(C)N3CCOCC3)c2C)c(=O)[nH]1 (centres unmarked) [Example 112, N-((4,6-dimethyl-2-oxo-1,2-dihydropyridin-3-yl)methyl)-6-methyl-5-(1-morpholinoethyl)-2-(pyrazol-5-yl)indolizine-7-carboxamide]
Second: COc1ccc(F)c(-c2cc3cc(C(=O)NCc4c(C)cc(C)[nH]c4=O)c(C)c(C(C)N4CCOCC4)n3c2)c1 (centres unmarked) [Example 124, N-((4,6-dimethyl-2-oxo-1,2-dihydropyridin-3-yl)methyl)-2-(2-fluoro-5-methoxyphenyl)-6-methyl-5-(1-morpholinoethyl)indolizine-7-carboxamide]
The IC50 of the first is lower: under 0.1 µM for the first, 0.1 to 1 µM for the second. The first is the more potent here.

Cc1cc(C)c(CNC(=O)c2cc3cc(-c4cc5c(s4)CCNC5)cn3c(C(C)N3CCOCC3)c2C)c(=O)[nH]1 (centres unmarked) [Example 114, N-((4,6-dimethyl-2-oxo-1,2-dihydropyridin-3-yl)methyl)-6-methyl-5-(1-morpholinoethyl)-2-(4,5,6,7-tetrahydro[2,3-c]pyridin-2-yl)indolizine-7-carboxamide] and COC(=O)c1cc2cc(C(=O)NCc3c(C)cc(C)[nH]c3=O)c(C)c(C(C)N3CCOCC3)n2c1 (centres unmarked) [Example 125, methyl 7-(((4,6-dimethyl-2-oxo-1,2-dihydropyridin-3-yl)methyl)carbamoyl)-6-methyl-5-(1-morpholinylethyl)indolizine-2-carboxylate] fall in the same range of IC50: 0.1 to 1 µM for the first, 0.1 to 1 µM for the second.

Cc1cc(C)c(CNC(=O)c2cc3c(-c4cccc(N5CCOCC5)c4)ccn3c(C(C)N3CCOCC3)c2C)c(=O)[nH]1 (centres unmarked) [Example 116, N-((4,6-dimethyl-2-oxo-1,2-dihydropyridin-3-yl)methyl)-1-(3-(dimethylamine)phenyl)-6-methyl-5-(1-morpholinylethyl)indolizine-7-carboxamide] and Cc1cc(C)c(CNC(=O)c2cc3c(-c4ccc(N5CCOCC5)cc4)ccn3c(C(C)N3CCOCC3)c2C)c(=O)[nH]1 (centres unmarked) [Example 118, N-((4,6-dimethyl-2-oxo-1,2-dihydropyridin-3-yl)methyl)-1-(4-(dimethylamine)phenyl)-6-methyl-5-(1-morpholinylethyl)indolizine-7-carboxamide] cannot be ordered by IC50: under 0.1 µM for the first, under 0.1 µM for the second.

Cc1cc(C)c(CNC(=O)c2cc3c(-c4ccc(N5CCOCC5)cc4)ccn3c(C(C)N3CCOCC3)c2C)c(=O)[nH]1 (centres unmarked) [Example 119, N-((4,6-dimethyl-2-oxo-1,2-dihydropyridin-3-yl)methyl)-6-methyl-5-(1-morpholinylethyl)-1-(4-morpholinylphenyl)indolizine-7-carboxamide] and COc1cccc(-c2ccn3c(C(C)N4CCOCC4)c(C)c(C(=O)NCc4c(C)cc(C)[nH]c4=O)cc23)c1 (centres unmarked) [Example 120, N-((4,6-dimethyl-2-oxo-1,2-dihydropyridin-3-yl)methyl)-6-methyl-5-(1-morpholinylethyl)-1-(3-methoxyphenyl)indolizine-7-amide] cannot be ordered by IC50: under 0.1 µM for the first, under 0.1 µM for the second.

First: Cc1cc(C)c(CNC(=O)c2cc3cc(Br)cn3c(C(C)N3CCC(F)(F)CC3)c2C)c(=O)[nH]1 (centres unmarked) [Example 123, 2-bromo-5-(1-(4,4-difluoropiperidin-1-yl)ethyl)-N-((4,6-dimethyl-2-oxo-1,2-dihydropyridin-3-yl)methyl)-6-methylindolizine-7-carboxamide]
Second: Cc1cc(C)c(CNC(=O)c2cc3cc(-c4cncn4C)cn3c(C(C)N3CCC(N(C)C)CC3)c2C)c(=O)[nH]1 (centres unmarked) [Example 134, N-((4,6-dimethyl-2-oxo-1,2-dihydropyridin-3-yl)methyl)-5-(1-(4-(dimethylamino)piperidin-1-yl)ethyl)-6-methyl-2-(1-methyl-1H-imidazol-5-yl)indolizine-7-carboxamide]
The IC50 of the first is higher: 1 to 10 µM for the first, under 0.1 µM for the second.

Cc1cc(C)c(CNC(=O)c2cc3cc(C(=O)N4CCOCC4)cn3c(C(C)N3CCOCC3)c2C)c(=O)[nH]1 (centres unmarked) [Example 126, N-((4,6-dimethyl-2-oxo-1,2-dihydropyridin-3-yl)methyl)-6-methyl-2-(morpholin-4-carbonyl)-5-(1-morpholinoethyl)indolizine-7-carboxamide] and COc1cc(C)[nH]c(=O)c1CNC(=O)c1cc2c(-c3ccccc3)ccn2c(C(C)N2CCOCC2)c1C (centres unmarked) [Example 131, N-((4-methoxy-6-methyl-2-oxo-1,2-dihydropyridin-3-yl)methyl)-6-methyl-5-(1-morpholinylethyl)-1-phenylindolizine-7-carboxamide] cannot be ordered by IC50: under 0.1 µM for the first, under 0.1 µM for the second.

In the case of COc1cc(C)[nH]c(=O)c1CNC(=O)c1cc2c(-c3ccccc3)ccn2c(C(C)N2CCC(N(C)C)CC2)c1C (centres unmarked) [Example 129, N-((4,6-dimethyl-2-oxo-1,2-dihydropyridin-3-yl)methyl)-5-(1-(4-(dimethylamine)piperidine-1-yl)ethyl)-6-methyl-1-(1-methyl-1H-pyrazol-5-yl)indolizine-7-carboxamide], the IC50 is reported as under 0.1 µM.
